Tested on: clinically isolated S.mutans strains
Experiment: Bactericidal activity against clinically isolated S. mutans strains (CFU counting)
Format: cell-based, Streptococcus mutans
Conditions: for bacterial viability (survival): 10 min, CFU
Method: Table S3 The bactericidal activity of pHly -1 NPs and CHX against clinically isolated S.mutans strains a
“a” represents the bacterial viability after the pHly-1 NPs and CHX treatment for 10 min. The killing activity of pHly -1 NPs and CHX was measured against clinically isolated S.mutans strains by counting the CFU of alive bacteria. […]
Minimal inhibition concentration (MIC) determination . S.mutans UA159 (ATCC 700610) and 20 clinical S.mutans strains were used. S.mutans UA159 was purchased from Shanghai Biofeng Biotechnology Co., LTD. These bacteria grown in brain heart infusion broth (BHI, Beijing Land Bridge, China) at 37 °C under anaerobic conditions. […]
Bacterial killing by pHly-1 NPs at various pHs. pHly-1 NPs were diluted in BHI medium of different pHs (pH 4.5, 5.5, 6.8, and 7.0) to obtain specific diluted solutions (final volume of 200 μ L). 1 μ L bacterial suspension (2×10^8 CFU/mL) in the logarithmic phase was added into corresponding diluted solutions and mixed individually. After being incubated for 10 min at 37 °C under anaerobic conditions, aliquots of 20 μL bacterial suspension were plated on BHI agar plates. The bacterial killing activity of pHly -1 NPs was measured by counting the CFU of alive bacteria with agar plating after incubation under anaerobic conditions for 48 h at 37 °C. The results were determined and presented of three repeats. Bacterial survival(%) = CFU of bacteria treated with drugs/CFU of bacteria treated with negative control× 100% 2. […]
For SEM, S. mutans UA159 was treated by the same way to SYTO 9/PI double staining asay and then harvested, washed, and then fixed in 2.5 % glutaraldehyde for 3 h. After dehydration by serial concentrations of ethanol solutions (10%, 25%, 50%, 75%, 95%, and 100%) and lyophiliz ation overnight, the lyophilized samples were coated with goldand then photographed by SEM.

## [H]/N=C(\N/C(=N/[H])NCCCCCCNC(=N)NC(=N)Nc1ccc(Cl)cc1)Nc1ccc(Cl)cc1 [CHX, chlorhexidine]
55 μM, in 4 strains
  viability: over 90%
Strain CS-1, pH 4.5, 22 μM
  bacterial viability (survival): 95.2%
Strain CS-1, pH 4.5, 55 μM
  bacterial viability (survival): 54%
Strain CS-1, pH 5.5, 22 μM
  bacterial viability (survival): 91.6%
Strain CS-1, pH 5.5, 55 μM
  bacterial viability (survival): 31.3%
Strain CS-2, pH 4.5, 22 μM
  bacterial viability (survival): 96.4%
Strain CS-2, pH 4.5, 55 μM
  bacterial viability (survival): 69.1%
Strain CS-2, pH 5.5, 22 μM
  bacterial viability (survival): 86.9%
Strain CS-2, pH 5.5, 55 μM
  bacterial viability (survival): 76.6%
Strain CS-4, pH 4.5, 22 μM
  bacterial viability (survival): 100%
Strain CS-4, pH 4.5, 55 μM
  bacterial viability (survival): 66.4%
Strain CS-4, pH 5.5, 22 μM
  bacterial viability (survival): 100%
Strain CS-4, pH 5.5, 55 μM
  bacterial viability (survival): 74.6%
Strain CS-5, pH 4.5, 22 μM
  bacterial viability (survival): 100%
Strain CS-5, pH 4.5, 55 μM
  bacterial viability (survival): 67.7%
Strain CS-5, pH 5.5, 22 μM
  bacterial viability (survival): 89.6%
Strain CS-5, pH 5.5, 55 μM
  bacterial viability (survival): 54.9%
Strain CS-6, pH 4.5, 22 μM
  bacterial viability (survival): 106%
Strain CS-6, pH 4.5, 55 μM
  bacterial viability (survival): 67.0%
Strain CS-6, pH 5.5, 22 μM
  bacterial viability (survival): 95.6%
Strain CS-6, pH 5.5, 55 μM
  bacterial viability (survival): 88.8%
Strain CS-7, pH 4.5, 22 μM
  bacterial viability (survival): 97.0%
Strain CS-7, pH 4.5, 55 μM
  bacterial viability (survival): 54%
Strain CS-7, pH 5.5, 22 μM
  bacterial viability (survival): 91.6%
Strain CS-7, pH 5.5, 55 μM
  bacterial viability (survival): 67.7%
Strain CS-8, pH 4.5, 22 μM
  bacterial viability (survival): 79.5%
Strain CS-8, pH 4.5, 55 μM
  bacterial viability (survival): 49.4%
Strain CS-8, pH 5.5, 22 μM
  bacterial viability (survival): 81.8%
Strain CS-8, pH 5.5, 55 μM
  bacterial viability (survival): 61.8%
Strain CS-9, pH 4.5, 22 μM
  bacterial viability (survival): 83.9%
Strain CS-9, pH 4.5, 55 μM
  bacterial viability (survival): 77%
Strain CS-9, pH 5.5, 22 μM
  bacterial viability (survival): 73.8%
Strain CS-9, pH 5.5, 55 μM
  bacterial viability (survival): 46.9%
Strain CS-10, pH 4.5, 22 μM
  bacterial viability (survival): 83.6%
Strain CS-10, pH 4.5, 55 μM
  bacterial viability (survival): 52.3%
Strain CS-10, pH 5.5, 22 μM
  bacterial viability (survival): 68.9%
Strain CS-10, pH 5.5, 55 μM
  bacterial viability (survival): 68.2%
Strain CS-11, pH 4.5, 22 μM
  bacterial viability (survival): 100%
Strain CS-11, pH 4.5, 55 μM
  bacterial viability (survival): 50.7%
Strain CS-11, pH 5.5, 22 μM
  bacterial viability (survival): 140%
Strain CS-11, pH 5.5, 55 μM
  bacterial viability (survival): 59.4%
Strain CS-12, pH 4.5, 22 μM
  bacterial viability (survival): 98.6%
Strain CS-12, pH 4.5, 55 μM
  bacterial viability (survival): 91.1%
Strain CS-12, pH 5.5, 22 μM
  bacterial viability (survival): 110%
Strain CS-12, pH 5.5, 55 μM
  bacterial viability (survival): 74.2%
Strain CS-13, pH 4.5, 22 μM
  bacterial viability (survival): 93.5%
Strain CS-13, pH 4.5, 55 μM
  bacterial viability (survival): 87.4%
Strain CS-13, pH 5.5, 22 μM
  bacterial viability (survival): 74.0%
Strain CS-13, pH 5.5, 55 μM
  bacterial viability (survival): 65.8%
Strain CS-14, pH 4.5, 22 μM
  bacterial viability (survival): 100%
Strain CS-14, pH 4.5, 55 μM
  bacterial viability (survival): 51.9%
Strain CS-14, pH 5.5, 22 μM
  bacterial viability (survival): 74.2%
Strain CS-14, pH 5.5, 55 μM
  bacterial viability (survival): 71.6%
Strain CS-16, pH 4.5, 22 μM
  bacterial viability (survival): 95.9%
Strain CS-16, pH 4.5, 55 μM
  bacterial viability (survival): 10.9%
Strain CS-16, pH 5.5, 22 μM
  bacterial viability (survival): 87.9%
Strain CS-16, pH 5.5, 55 μM
  bacterial viability (survival): 20%
Strain CS-17, pH 4.5, 22 μM
  bacterial viability (survival): 108.2%
Strain CS-17, pH 4.5, 55 μM
  bacterial viability (survival): 92.3%
Strain CS-17, pH 5.5, 22 μM
  bacterial viability (survival): 102.0%
Strain CS-17, pH 5.5, 55 μM
  bacterial viability (survival): 48.3%
Strain CS-18, pH 4.5, 22 μM
  bacterial viability (survival): 68.2%
Strain CS-18, pH 4.5, 55 μM
  bacterial viability (survival): 71.5%
Strain CS-18, pH 5.5, 22 μM
  bacterial viability (survival): 114.8%
Strain CS-18, pH 5.5, 55 μM
  bacterial viability (survival): 92.2%
Strain CS-19, pH 4.5, 22 μM
  bacterial viability (survival): 93.0%
Strain CS-19, pH 4.5, 55 μM
  bacterial viability (survival): 101%
Strain CS-19, pH 5.5, 22 μM
  bacterial viability (survival): 96.9%
Strain CS-19, pH 5.5, 55 μM
  bacterial viability (survival): 87.9%
Strain CS-20, pH 4.5, 22 μM
  bacterial viability (survival): 91.0%
Strain CS-20, pH 4.5, 55 μM
  bacterial viability (survival): 100%
Strain CS-20, pH 5.5, 22 μM
  bacterial viability (survival): 103.9%
Strain CS-20, pH 5.5, 55 μM
  bacterial viability (survival): 88.9%

Source: publication PMC9254247, “Dual-sensitive antibacterial peptide nanoparticles prevent dental caries” (Theranostics, 2022)
